Earlier results on 2 compounds are cited in patent US8071577B2, “Multi-phase contraceptive preparation based on a natural estrogen” (Bayer Pharma Aktiengesellschaft, priority 2004, dated 2011).

For this series, the system named is ovulation. As to conditions: daily dose known from the literature.

For `C[C@]12CCC(=O)C=C1[C@@H]1C[C@@H]1[C@H]1[C@@H]3[C@@H]4C[C@@H]4[C@@]4(CCC(=O)O4)[C@@]3(C)CC[C@@H]12` [drospirenone], the ovulation-inhibitory dose is reported as 2.0-3.0 mg a day.
In the case of `C[C@]12CCC3=C4CCC(=O)C=C4CC[C@H]3[C@@H]1CC[C@@]2(O)CC#N` [dienogest], the ovulation-inhibitory dose is 1.0 mg a day.
